Activity calls are given as the source filed them.
What was measured:
[1] = biological target: T1, Replicative DNA helicase DnaB (Mycobacterium tuberculosis, UniProt P9WMR3); experiment: DnaB intein splicing inhibitors, dose response, biochemical, cell-free fluorescence (AID 449749); format: functional
T1 sequence (P9WMR3 whole entry): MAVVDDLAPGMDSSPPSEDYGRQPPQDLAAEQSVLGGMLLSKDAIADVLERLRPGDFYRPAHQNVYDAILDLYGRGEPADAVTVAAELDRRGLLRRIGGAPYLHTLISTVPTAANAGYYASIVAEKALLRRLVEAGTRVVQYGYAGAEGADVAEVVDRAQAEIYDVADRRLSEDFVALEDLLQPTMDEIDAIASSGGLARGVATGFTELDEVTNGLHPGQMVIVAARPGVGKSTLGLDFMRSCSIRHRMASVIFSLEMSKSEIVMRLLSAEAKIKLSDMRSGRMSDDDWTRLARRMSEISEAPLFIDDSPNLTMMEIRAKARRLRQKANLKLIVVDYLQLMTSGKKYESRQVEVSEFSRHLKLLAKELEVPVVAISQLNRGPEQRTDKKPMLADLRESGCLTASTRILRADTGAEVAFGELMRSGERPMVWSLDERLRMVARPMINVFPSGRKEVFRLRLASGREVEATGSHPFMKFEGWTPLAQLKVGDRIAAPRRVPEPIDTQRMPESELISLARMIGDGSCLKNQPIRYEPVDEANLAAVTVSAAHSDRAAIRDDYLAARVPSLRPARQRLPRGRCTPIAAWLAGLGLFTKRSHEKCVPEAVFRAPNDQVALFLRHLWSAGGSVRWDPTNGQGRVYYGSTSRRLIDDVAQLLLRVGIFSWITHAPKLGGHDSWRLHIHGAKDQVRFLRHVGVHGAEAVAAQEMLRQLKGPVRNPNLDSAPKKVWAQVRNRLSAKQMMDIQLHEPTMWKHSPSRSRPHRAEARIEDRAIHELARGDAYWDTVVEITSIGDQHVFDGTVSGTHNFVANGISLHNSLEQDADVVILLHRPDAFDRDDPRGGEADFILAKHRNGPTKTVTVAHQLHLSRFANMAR

[2] = Luminescence Cell-Based Dose Retest to Confirm Inhibitors of Cancer Stem Cells. [Related pubchem assays (depositor defined):AID2717, AID2721]; format: functional; conditions: Homo sapiens
[3] = CCR5-tropic HIV-1 fusion blockers – cell-based, CCR5-tropic Env, dose response (AID 2279); format: functional
[4] = A Cell Based Secondary Assay To Explore Cytotoxicity of Compounds that Sensitize Mycobacterium Tuberculosis to Beta-Lactam Antibiotics.; format: functional
[5] = biological target: T2, Protein RecA (Mycobacterium tuberculosis, UniProt P9WHJ3); experiment: Fluorescence Cell-Free Homogeneous Dose Retest to Identify Inhibitors of RecA-Intein Splicing Activity. [Related pubchem assays (depositor defined):AID2097, AID2223, AID489010, AID492950]; format: functional
T2 sequence (P9WHJ3 whole entry): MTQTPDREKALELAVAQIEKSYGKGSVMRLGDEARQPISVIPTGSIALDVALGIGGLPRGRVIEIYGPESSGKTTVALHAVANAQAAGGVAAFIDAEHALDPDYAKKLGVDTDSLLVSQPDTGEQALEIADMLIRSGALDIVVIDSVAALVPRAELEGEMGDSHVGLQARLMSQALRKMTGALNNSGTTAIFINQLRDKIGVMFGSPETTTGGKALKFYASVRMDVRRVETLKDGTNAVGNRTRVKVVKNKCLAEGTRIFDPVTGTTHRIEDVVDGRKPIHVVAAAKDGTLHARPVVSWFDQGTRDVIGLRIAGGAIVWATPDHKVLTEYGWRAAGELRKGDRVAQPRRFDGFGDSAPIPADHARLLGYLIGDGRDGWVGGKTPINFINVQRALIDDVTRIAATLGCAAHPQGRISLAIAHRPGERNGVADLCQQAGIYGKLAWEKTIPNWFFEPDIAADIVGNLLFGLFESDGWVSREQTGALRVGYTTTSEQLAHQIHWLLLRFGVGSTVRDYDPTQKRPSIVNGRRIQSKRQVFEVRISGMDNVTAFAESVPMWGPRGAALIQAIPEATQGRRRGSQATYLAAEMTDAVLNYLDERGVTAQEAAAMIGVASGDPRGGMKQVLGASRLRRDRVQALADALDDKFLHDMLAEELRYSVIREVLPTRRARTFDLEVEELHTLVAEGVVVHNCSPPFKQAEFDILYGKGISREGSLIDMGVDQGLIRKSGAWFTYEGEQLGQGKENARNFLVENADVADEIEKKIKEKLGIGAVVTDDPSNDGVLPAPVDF

[6] = biological target: T3, Neuropeptide Y receptor type 2 (Homo sapiens, UniProt P49146); experiment: IC50 for human NPY-Y2 blockade – cell-based, counter-screen for NPY-Y1 antagonist project, dose response (AID 1278); format: functional
T3 sequence (P49146 whole entry): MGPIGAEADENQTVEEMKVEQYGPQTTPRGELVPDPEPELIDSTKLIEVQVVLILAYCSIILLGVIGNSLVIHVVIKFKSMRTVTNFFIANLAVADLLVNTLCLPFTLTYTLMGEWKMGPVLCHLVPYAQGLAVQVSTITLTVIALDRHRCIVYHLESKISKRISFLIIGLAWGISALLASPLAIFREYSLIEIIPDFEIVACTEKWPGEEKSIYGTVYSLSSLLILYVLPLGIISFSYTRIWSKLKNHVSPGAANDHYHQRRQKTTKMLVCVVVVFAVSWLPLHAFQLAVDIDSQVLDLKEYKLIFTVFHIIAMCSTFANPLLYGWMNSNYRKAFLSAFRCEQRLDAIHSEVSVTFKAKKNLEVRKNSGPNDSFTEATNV

[7] = biological target: T4, Neuropeptide Y receptor type 1 (Homo sapiens, UniProt P25929); experiment: IC50 of human NPY-Y1 blockers – cell-based, dose response (AID 1277); format: functional
T4 sequence (P25929 whole entry): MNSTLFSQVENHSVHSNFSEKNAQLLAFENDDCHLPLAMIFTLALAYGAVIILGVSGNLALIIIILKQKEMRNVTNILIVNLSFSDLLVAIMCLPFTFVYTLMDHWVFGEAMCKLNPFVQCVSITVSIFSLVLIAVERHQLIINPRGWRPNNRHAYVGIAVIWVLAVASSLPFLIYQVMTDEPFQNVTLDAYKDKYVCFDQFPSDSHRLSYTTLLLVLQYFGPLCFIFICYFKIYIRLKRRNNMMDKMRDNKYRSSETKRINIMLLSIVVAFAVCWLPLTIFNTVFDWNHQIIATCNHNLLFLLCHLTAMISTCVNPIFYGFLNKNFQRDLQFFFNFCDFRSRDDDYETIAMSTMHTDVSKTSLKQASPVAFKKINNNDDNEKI

[8] = biological target: T5, Rac GTPase-activating protein 1 (Homo sapiens, UniProt Q9H0H5); experiment: blockers of MgcRacGAP-driven Rac1 GTP hydrolysis – biochemical, ADP Hunter fluorescence, primary and confirmatory, confirmation (AID 624330); format: functional
T5 sequence (Q9H0H5 whole entry): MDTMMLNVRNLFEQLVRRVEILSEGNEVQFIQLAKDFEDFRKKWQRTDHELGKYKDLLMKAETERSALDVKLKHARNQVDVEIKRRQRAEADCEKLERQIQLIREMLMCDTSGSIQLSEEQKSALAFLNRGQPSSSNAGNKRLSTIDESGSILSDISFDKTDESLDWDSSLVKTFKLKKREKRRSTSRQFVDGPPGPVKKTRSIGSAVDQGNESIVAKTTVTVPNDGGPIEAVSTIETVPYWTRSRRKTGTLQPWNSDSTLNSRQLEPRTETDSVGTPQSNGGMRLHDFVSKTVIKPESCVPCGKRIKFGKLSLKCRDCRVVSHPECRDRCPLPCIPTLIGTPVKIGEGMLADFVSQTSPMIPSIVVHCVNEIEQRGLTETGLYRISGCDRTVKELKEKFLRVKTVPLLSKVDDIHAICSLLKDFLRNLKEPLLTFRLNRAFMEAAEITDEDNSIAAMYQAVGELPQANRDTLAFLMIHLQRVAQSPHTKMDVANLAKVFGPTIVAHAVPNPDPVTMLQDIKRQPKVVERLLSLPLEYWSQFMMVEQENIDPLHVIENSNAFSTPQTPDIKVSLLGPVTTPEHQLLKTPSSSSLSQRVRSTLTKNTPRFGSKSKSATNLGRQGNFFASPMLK

[9] = biological target: Protein-tyrosine kinase 2-beta (Homo sapiens, UniProt Q14289);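 further: potency of inhibitors of PYK2 kinase phosphorylation of poly-GT substrate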
[10] = Luminescence-based counterscreen assay for KLF5 inhibitors: dose response cell-based high throughput screening assay to identify cytotoxic compounds using the IEC-6 intestinal epithelial cell line. [Related pubchem assays: 1700 (Primary screen.), 1834 (Confirmation screen.), 1858 (Summary AID.), 1905 (Counterscreen.)]; format: functional
[11] = cells; format: functional, cell-based
[12] = biological target: Voltage-gated inwardly rectifying potassium channel KCNH2 (Homo sapiens, UniProt Q12809); experiment: concentration-dependent hERG rescue from blockers – cell-based, thallium flux, dose response (AID 2121); format: ADME
Chain of Voltage-gated inwardly rectifying potassium channel KCNH2 (Q12809 whole entry): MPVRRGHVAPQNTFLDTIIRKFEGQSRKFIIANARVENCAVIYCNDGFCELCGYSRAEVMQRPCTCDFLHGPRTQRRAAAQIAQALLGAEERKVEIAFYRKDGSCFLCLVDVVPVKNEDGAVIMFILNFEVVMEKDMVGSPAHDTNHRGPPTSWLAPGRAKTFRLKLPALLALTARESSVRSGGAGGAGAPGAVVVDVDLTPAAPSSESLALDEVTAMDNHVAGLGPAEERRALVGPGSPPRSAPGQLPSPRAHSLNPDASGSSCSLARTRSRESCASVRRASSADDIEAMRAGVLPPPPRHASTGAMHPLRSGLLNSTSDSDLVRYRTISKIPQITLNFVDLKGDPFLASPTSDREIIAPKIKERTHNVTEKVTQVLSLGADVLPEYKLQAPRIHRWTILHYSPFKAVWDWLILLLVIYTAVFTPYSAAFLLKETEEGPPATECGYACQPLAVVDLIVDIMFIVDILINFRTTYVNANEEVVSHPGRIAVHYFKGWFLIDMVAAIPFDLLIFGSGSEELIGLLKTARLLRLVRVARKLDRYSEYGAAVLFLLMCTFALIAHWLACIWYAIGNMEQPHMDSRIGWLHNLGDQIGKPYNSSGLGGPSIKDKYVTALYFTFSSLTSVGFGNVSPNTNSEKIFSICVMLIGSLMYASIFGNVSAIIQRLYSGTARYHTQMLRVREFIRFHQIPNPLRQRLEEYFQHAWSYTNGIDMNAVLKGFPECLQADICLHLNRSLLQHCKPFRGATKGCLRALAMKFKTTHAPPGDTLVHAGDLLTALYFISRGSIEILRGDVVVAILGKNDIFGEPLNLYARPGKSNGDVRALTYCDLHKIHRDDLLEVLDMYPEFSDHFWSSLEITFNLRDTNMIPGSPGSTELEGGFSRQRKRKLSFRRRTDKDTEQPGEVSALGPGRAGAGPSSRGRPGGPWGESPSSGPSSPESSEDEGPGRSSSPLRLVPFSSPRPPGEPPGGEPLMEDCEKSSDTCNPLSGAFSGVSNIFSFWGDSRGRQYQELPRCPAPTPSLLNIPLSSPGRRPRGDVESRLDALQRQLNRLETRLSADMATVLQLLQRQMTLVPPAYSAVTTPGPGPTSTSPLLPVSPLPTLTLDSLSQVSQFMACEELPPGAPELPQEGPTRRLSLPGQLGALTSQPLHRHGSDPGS

[13] = biological target: T6, Nuclear receptor subfamily 0 group B member 1 (Homo sapiens, UniProt P51843); format: functional, cell-based;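 further: HEK293T cells transfected with SF-1 and DAX-1 plus StAR promoter luciferase reporter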
T6 sequence (P51843 whole entry): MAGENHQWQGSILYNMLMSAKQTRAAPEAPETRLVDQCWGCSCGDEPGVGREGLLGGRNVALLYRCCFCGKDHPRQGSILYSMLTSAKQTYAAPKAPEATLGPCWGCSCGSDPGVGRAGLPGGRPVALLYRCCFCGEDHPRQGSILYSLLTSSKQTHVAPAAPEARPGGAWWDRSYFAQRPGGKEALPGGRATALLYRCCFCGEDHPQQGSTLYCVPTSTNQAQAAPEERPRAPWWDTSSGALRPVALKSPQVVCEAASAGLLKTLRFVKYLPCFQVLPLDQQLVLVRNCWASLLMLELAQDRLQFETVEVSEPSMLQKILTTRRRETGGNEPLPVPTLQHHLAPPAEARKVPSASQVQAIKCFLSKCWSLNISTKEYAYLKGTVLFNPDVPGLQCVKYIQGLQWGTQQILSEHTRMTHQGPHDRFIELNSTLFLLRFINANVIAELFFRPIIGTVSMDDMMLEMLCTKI

[14] = biological target: Major prion protein (Homo sapiens, UniProt P04156); format: functional, cell-based
[15] = cells
[16] = Trypanosoma cruzi growth suppression in host cells – NIH3T3 host cells, beta-gal luminescence, confirmation (AID 2044); format: functional, cell-based;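 further: intracellular parasites grown in NIH/3T3 mouse fibroblasts as host cells; luminescent beta-galactosidase reporter signal from transgenic T. cruzi replicating inside host cells; inhibitors lower the luminescence signal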
[17] = biological target: T3, Neuropeptide Y receptor type 2; format: functional, cell-based
[18] = NIH3T3 cell viability loss – ATP luminescence, mouse fibroblasts, counter-screen, dose response (AID 2010); format: functional, cell-based;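 further: cells exposed to compound for about 90 hours before reading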
[19] = biological target: T4, Neuropeptide Y receptor type 1; format: functional
[20] = system: HeLa; experiment: Cytotoxicity counterscreen assay for transcriptional activators of heat shock protein 70 (Hsp70). [Related pubchem assays: 1203, 1252 ]; format: functional; conditions: Homo sapiens;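 further: cells exposed to compound for 16 hours before readout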
[21] = cells; remark: listed apart in the source
[22] = biological target: T7, Ion channel NompC (Danio rerio, UniProt Q7T1G6); experiment: Fluorescence counterscreen assay for TRPML3 agonists: dose response cell-based high-throughput screening assay to identify agonists of the transient receptor potential channel N1 (TRPN1). [Related pubchem assays: 1526, 1424, 1448 ]; format: functional
T7 sequence (Q7T1G6 whole entry): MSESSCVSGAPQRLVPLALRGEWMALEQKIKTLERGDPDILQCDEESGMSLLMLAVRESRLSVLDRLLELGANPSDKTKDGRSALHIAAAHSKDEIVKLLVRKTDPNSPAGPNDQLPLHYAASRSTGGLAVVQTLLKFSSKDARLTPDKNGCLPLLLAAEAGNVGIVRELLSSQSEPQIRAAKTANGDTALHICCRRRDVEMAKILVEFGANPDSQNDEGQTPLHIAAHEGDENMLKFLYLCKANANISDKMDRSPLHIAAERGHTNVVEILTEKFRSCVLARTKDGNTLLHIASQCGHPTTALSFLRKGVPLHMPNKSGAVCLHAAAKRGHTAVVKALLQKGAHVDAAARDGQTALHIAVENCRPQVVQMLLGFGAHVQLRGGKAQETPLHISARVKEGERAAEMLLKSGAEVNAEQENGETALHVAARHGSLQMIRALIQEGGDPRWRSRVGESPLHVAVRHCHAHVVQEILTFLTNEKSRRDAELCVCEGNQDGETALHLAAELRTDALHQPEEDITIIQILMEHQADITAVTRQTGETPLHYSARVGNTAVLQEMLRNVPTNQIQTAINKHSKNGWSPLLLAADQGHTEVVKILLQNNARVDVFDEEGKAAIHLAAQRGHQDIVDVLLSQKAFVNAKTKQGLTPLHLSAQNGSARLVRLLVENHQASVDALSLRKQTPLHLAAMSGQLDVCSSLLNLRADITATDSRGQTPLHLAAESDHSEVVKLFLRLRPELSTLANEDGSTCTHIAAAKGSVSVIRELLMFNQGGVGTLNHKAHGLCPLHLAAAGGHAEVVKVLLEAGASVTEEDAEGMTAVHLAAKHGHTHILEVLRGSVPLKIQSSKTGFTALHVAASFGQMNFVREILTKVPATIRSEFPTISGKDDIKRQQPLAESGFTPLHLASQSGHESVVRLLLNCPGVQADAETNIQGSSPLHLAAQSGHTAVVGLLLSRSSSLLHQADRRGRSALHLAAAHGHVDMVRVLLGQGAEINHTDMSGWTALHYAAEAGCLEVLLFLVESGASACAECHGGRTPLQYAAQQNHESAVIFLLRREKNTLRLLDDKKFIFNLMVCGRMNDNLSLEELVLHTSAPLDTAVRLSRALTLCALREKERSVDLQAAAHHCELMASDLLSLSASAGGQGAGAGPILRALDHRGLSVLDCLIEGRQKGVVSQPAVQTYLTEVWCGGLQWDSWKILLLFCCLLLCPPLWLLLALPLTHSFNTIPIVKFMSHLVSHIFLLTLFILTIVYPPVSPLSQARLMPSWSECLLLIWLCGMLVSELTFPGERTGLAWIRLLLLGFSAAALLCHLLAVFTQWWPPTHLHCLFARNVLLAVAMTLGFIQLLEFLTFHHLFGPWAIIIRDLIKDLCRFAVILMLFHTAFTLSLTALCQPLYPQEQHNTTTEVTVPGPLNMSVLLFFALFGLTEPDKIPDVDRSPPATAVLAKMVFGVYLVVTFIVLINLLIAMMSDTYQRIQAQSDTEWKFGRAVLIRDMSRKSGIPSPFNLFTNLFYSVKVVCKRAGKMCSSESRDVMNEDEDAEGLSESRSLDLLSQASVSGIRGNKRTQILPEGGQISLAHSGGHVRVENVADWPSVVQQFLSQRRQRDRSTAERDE

[23] = biological target: T7, Ion channel NompC; experiment: Late stage counterscreen for the probe development effort to identify selective agonists of the Transient Receptor Potential Channels 3 (TRPML3): fluorescence-based cell-based dose response assay for TRPN1 agonists.; format: functional
[24] = biological target: T8, Calpain-2 catalytic subunit (Sus scrofa, UniProt P43367); experiment: m-calpain protease blockers, concentration series – biochemical, fluorogenic peptide substrate, dose response (AID 1420); format: functional
T8 sequence (P43367 whole entry): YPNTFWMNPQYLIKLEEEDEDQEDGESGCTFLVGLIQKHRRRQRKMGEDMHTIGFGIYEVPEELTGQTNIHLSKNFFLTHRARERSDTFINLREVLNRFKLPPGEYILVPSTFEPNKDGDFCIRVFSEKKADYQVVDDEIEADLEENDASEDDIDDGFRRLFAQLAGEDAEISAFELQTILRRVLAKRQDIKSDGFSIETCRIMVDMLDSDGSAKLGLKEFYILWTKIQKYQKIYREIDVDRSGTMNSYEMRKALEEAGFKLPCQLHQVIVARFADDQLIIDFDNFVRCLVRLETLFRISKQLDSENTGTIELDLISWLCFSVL

[25] = biological target: Mucolipin-3 (Homo sapiens, UniProt Q8TDD5); experiment: Dose response cell-based high-throughput screening assay for agonists of the transient receptor potential channel ML3 (TRPML3). [Related pubchem assays: 1526, 1424, 1448 ]; format: functional
Chain of Mucolipin-3 (Q8TDD5 whole entry): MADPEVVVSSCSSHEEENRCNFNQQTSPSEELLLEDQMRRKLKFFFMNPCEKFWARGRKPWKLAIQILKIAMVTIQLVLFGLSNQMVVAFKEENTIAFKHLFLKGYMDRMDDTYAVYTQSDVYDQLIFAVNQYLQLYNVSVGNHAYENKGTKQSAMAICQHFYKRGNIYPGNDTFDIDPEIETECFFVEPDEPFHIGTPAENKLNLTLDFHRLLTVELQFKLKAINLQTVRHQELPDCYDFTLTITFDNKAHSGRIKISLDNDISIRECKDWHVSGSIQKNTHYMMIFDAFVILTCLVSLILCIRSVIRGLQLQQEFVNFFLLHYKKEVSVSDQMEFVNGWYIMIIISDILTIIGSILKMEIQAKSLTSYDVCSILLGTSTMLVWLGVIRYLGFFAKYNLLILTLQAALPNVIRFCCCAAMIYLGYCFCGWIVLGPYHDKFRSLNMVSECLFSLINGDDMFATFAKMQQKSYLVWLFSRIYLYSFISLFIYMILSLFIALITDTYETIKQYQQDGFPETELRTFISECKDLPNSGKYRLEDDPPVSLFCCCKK

[26] = NIH-3T3 fibroblast cytotoxicity, dose response, cytotoxicity control, cell-based, fluorescence, Alamar Blue, secondary assay (AID 2327); format: functional;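 further: NIH-3T3 mouse fibroblasts cultured with fluconazole at 8 µg/mL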
[27] = fluconazole-exposed Candida albicans growth modulators – fluorescence, retest, confirmation (AID 2467); format: functional, cell-based
[28] = system: INS1; experiment: INS-1E survival protection against cytokine death – cell-based, luminescence, retest, dose response (AID 449756); format: functional; conditions: Rattus norvegicus;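 further: cell death triggered by IL-1 beta plus TNF-alpha plus IFN-gamma mixture; protective hits raise ATP signal compared with cytokine alone wells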
[29] = biological target: Nonstructural protein 1 (Influenza A virus, UniProt Q194T2); format: functional, Influenza A virus (A/California/07/2009(H1N1))
Chain of Nonstructural protein 1 (Q194T2 whole entry): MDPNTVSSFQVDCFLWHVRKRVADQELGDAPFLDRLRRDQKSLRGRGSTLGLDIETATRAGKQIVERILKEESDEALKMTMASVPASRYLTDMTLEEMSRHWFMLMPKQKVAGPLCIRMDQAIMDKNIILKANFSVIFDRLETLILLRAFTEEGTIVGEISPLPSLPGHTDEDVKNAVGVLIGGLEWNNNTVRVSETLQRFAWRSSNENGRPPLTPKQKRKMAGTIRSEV

[30] = mitochondrial function rescue without frataxin homolog – Friedreich's ataxia, plus single-dose screen, dose response (AID 1465); format: functional;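 further: yeast depleted of Yfh1p frataxin homolog grown on glycerol needing respiration; WST-1 tetrazolium dye reduction as measure of cellular dehydrogenase metabolic activity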

## Cc1nn(CCc2nn[nH]n2)c2nc(-c3ccc(C4CCCCC4)cc3)cc(C(F)(F)F)c12
[1]
  AC50: 3.83 µM (active)
[2]
  AC50: 2.14 µM (active)
[3]
  IC50: 21.7 µM (active)
[4]
  CC50: 34.4 µM (active)
[5]
  EC50: 38.1 µM (active)

## COc1ccc(Oc2c[nH]nc2-c2ccc(O)cc2O)cc1
[6]
  IC50: > 35 µM (not active)
[7]
  IC50: > 35 µM (not active)
[8]
  IC50: 28.3 µM (active)

## O=C(OCCN=C1NS(=O)(=O)c2ccccc21)c1cccnc1
[9]
  IC50: > 69.5 µM (not active)

## COc1ccc(/C=N/NC(=O)CCn2c3ccccc3c3ccccc32)cc1O
[10]
  IC50: 2.02 µM (active)

## O=C(COc1ccc2ccccc2c1Br)Nc1cccnc1
[11]
  IC50: > 67.5 µM (inactive)
[12]
  EC50: 0.24 µM (active)
[13]
  IC50: > 67.5 µM (inactive)
[14]
  IC50: 5.81 µM (active)
[15]
  IC50: > 138 µM (inactive)

## CN1CCN(c2ccccc2NC(=O)c2ccc(-c3ccc(Cl)cc3Cl)o2)CC1
[16]
  EC50: 1.06 µM (active)
[17]
  IC50: > 12 µM (not active)
[2]
  AC50: 3.09 µM (active)
[18]
  EC50: > 60 µM (not active)
[19]
  IC50: 4.46 µM (active)

## Cc1ccc(N=C(S)NC(NC(=O)c2ccccc2)C(Cl)(Cl)Cl)c(C)c1 (stereo unspecified)
[20]
  CC50: 47 µM (not active)

## O=C(CCCn1c(=O)c2sccc2n(Cc2cc(=O)n3ccccc3n2)c1=O)NCc1ccco1
[21]
  IC50: 36.6 µM (active)

## CCOc1ccc(S(=O)(=O)N2CCCCC2)c(C)c1C
[22]
  EC50: > 29.9 µM (not active)
[23]
  EC50: > 29.9 µM (not active)
[24]
  IC50: 32.6 µM (not active)
[25]
  EC50: 1.43 µM (active)

## Cc1ccc2cc(C3C(C#N)=C(N)Oc4c3ccc3cccnc43)c(O)nc2c1 (stereo unspecified)
[26]
  EC50: > 150 µM (inactive)
[27]
  EC50: > 38 µM (not active)
[28]
  AC50: 1.02 µM (active)
[29]
  IC50: 14.3 µM (active)
[30]
  EC50: > 100 µM (active)

Reference: ChEMBL document CHEMBL1201862, “PubChem BioAssay data set” (2004)
